The values that follow are results of earlier work, collected in the CATMoS acute toxicity set (Mansouri et al. 2021).

Several values for one entry are separate records, joined by “and”; a condition that tells them apart may be missing. Identical values can stand only once.

The nature of the data set: rat acute oral toxicity. Particulars: in vivo.
As usually defined, the LD50 is the dose expected to kill half of the subjects tested. With `CC(C=CC=C(C)C(=O)OC1OC(COC2OC(CO)C(O)C(O)C2O)C(O)C(O)C1O)=CC=CC=C(C)C=CC=C(C)C(=O)OC1OC(COC2OC(CO)C(O)C(O)C2O)C(O)C(O)C1O` (configuration not stated), the 50% lethal dose (LD50) was 3160 mg/kg.
For the compound `CN(SSC(C)(C)C)C(=O)ON=C1SC(C)(C)C(=O)N1C`, the LD50 was 299 mg/kg.
As to `C=CCOC(=O)CCC1CCCCC1`, the LD50 is 585 mg/kg.
On to `COc1ccc(-c2nc3ccc(C4=NNC(=O)CC4C)cc3[nH]2)cc1` (configuration not stated), for which the LD50 is 950 mg/kg.
As for `Cc1ccc(SN2C(=O)c3ccccc3C2=O)cc1`, the LD50 was 5060 mg/kg.
As for `CCCCOC(=O)CC(CC(=O)OCCCC)(OC(C)=O)C(=O)OCCCC`, the LD50 is 31400 mg/kg.
Take `C[N+](C)(C)CC[N+]1(C)Cc2c(Cl)c(Cl)c(Cl)c(Cl)c2C1`: the LD50 is 300 mg/kg.
Turning to `CCC(=O)O[C@H]1[C@H](O[C@@H]2[C@@H](C)[C@H](O[C@H]3C[C@@](C)(OC)[C@@H](O)[C@H](C)O3)[C@@H](C)C(=O)O[C@H](CC)[C@@](C)(O)[C@H](O)[C@@H](C)C(=O)[C@H](C)C[C@@]2(C)O)O[C@H](C)C[C@@H]1N(C)C`, the LD50 is 1450 mg/kg.
Take `C=CC[C@@H]1C=C(C)C[C@H](C)C[C@H](OC)[C@H]2O[C@@](O)(C(=O)C(=O)N3CCCC[C@H]3C(=O)O[C@H](C(C)=C[C@@H]3CC[C@@H](O)[C@H](OC)C3)[C@H](C)[C@@H](O)CC1=O)[C@H](C)C[C@@H]2OC`: the LD50 is 134 mg/kg.
`OC(CNCC(O)C1COc2ccccc2O1)C1COc2ccccc2O1` (configuration not stated): the LD50 is 4490 mg/kg.
Take `O=C1c2ccccc2N(C(=O)CN2CCOCC2)CN1c1ccccc1`: the 50% lethal dose (LD50) is 2220 mg/kg and 2140 mg/kg.
Turning to `NCCSSCCN`, the LD50 is 896 mg/kg.
As for `CCCCCCN`, the median lethal dose (LD50) is 670 mg/kg.
On to `O=c1ccc(=O)[nH][nH]1`, for which the median lethal dose (LD50) is 10800 mg/kg.
Regarding `CCc1occc(=O)c1O`, the LD50 was 1150 mg/kg.
With `CCCCN(CCCC)CCC(O)c1cc2c(Cl)cc(Cl)cc2c2cc(C(F)(F)F)ccc12` (configuration not stated), the LD50 was 3400 mg/kg.
Regarding `CNC(=S)S`, the LD50 is 108 mg/kg.
With `OCCN1CCN(CCC=C2c3ccccc3Sc3ccc(Cl)cc32)CC1`, the LD50 is 660 mg/kg.
As for `CC(C)(c1ccccc1)c1ccc(O)cc1`, the LD50 is 1770 mg/kg.
On to `O=NN1CCN(N=O)CC1`, for which the LD50 was 160 mg/kg.
In the case of `C=CC(C)(O)CC` (configuration not stated), the LD50 was 700 mg/kg.
On to `N#CC(=O)c1cccc(Cl)c1Cl`, for which the LD50 was 50 mg/kg.
Take `CC1COn2c1nc1ccccc1c2=O` (configuration not stated): the LD50 is 765 mg/kg.
Regarding `Nc1ccc2c(O)cc(S(=O)(=O)O)cc2c1`, the median lethal dose (LD50) was 11500 mg/kg.
Take `CCCCCCCCOC(=O)C1=C(C)NC(C)=C(C(=O)NC2CC2)C1c1ccccc1[N+](=O)[O-]` (configuration not stated): the LD50 is 50 mg/kg.
Take `CC(=O)C1(O)Cc2c(O)c3c(c(O)c2C(OC2CC(N)C(O)C(C)O2)C1)C(=O)c1c(O)cccc1C3=O` (configuration not stated): the LD50 was 23 mg/kg.
Regarding `O=[N+]([O-])c1cc(Br)c2nc(C(F)(F)F)[nH]c2c1`, the LD50 was 14.5 mg/kg.
Consider `COP(N)(=S)SC` (configuration not stated), for which the LD50 was 250 mg/kg.
Regarding `CCCCC(CC)COC(C[n+]1ccccc1)c1ccc(C2CCCC2)cc1` (configuration not stated), the LD50 is 250 mg/kg.
In the case of `NC1CCCCC1`, the LD50 was 720 mg/kg and 1650 mg/kg.
`Cc1cccc(N2CCN(CCCCN3C(=O)CNC3=O)CC2)c1`: the LD50 is 383 mg/kg.
For `CC1=CCC(C(C)C)=CC1`, the LD50 was 3650 mg/kg.
As for `CC(Oc1ccc2ccccc2c1)C(O)=Nc1ccccc1` (configuration not stated), the LD50 is 15000 mg/kg.
In the case of `CCC(C)OC(CBr)c1ccccc1` (configuration not stated), the LD50 was 250 mg/kg.
`Cc1cc(Cl)ccc1OCC(=O)OCCCCCC(C)C`: the LD50 is 700 mg/kg.
`CC(=O)CC(C)(C)N(C)N=O`: the 50% lethal dose (LD50) is 2100 mg/kg.
Regarding `CC(=O)Oc1cc(C(C)C)c(OCCN(C)C)cc1C`, the 50% lethal dose (LD50) was 740 mg/kg.
On to `COC(=O)CCC(Cl)C(C)=O` (configuration not stated), for which the LD50 was 2050 mg/kg.
In the case of `C#CCN(C)Cc1ccccc1`, the LD50 is 250 mg/kg and 300 mg/kg.
Turning to `C#CCN1C(=O)CN=C(c2ccccc2)c2cc(Cl)ccc21`, the LD50 was 5820 mg/kg.
Consider `CC(N)(Cc1ccc(O)c(O)c1)C(=O)O` (configuration not stated), for which the LD50 is 5710 mg/kg.
For the compound `C[C@]12CC[C@@H]3c4ccc(OC(=O)N(CCCl)CCCl)cc4CC[C@H]3[C@@H]1CC[C@@H]2OP(=O)(O)O`, the LD50 is 5400 mg/kg.
In the case of `COCCC#N`, the LD50 was 4390 mg/kg.
For `C=CC(=O)OCCSCC`, the LD50 was 2500 mg/kg.
As for `CCCCN(CCCC)CCOc1ccnc(N)n1`, the LD50 is 1000 mg/kg.
As to `CCCSc1cc(Oc2ccc([N+](=O)[O-])cc2)ccc1Cl`, the LD50 is 1130 mg/kg.
For the compound `CC1=NOC(=O)/C1=N\Nc1ccccc1Cl`, the LD50 is 126 mg/kg.
With `COc1ccccc1OCC(O)COC(N)=O` (configuration not stated), the LD50 is 1320 mg/kg.
As to `CCN(CC)C(=S)Sc1nc2ccccc2s1`, the LD50 is 6000 mg/kg.
With `CCOc1ccccc1OCCN[C@H](C)Cc1ccc(OC)c(S(N)(=O)=O)c1`, the median lethal dose (LD50) is 650 mg/kg.
Regarding `COc1ccc(CCNC[C@H](O)c2ccc(O)cc2)cc1OC`, the LD50 was 9370 mg/kg.
On to `CCOCCOCCOc1ccccc1`, for which the LD50 was 2140 mg/kg.
For `C#CC(C)(C)N`, the LD50 is 1470 mg/kg.
Regarding `CCCCC(O)CC` (configuration not stated), the 50% lethal dose (LD50) is 1870 mg/kg.
For `CCOP(=S)(OCC)SC1OCCOC1SP(=S)(OCC)OCC` (configuration not stated), the LD50 was 20 mg/kg.
Take `C=CCc1ccccc1OCC(O)CNC(C)C` (configuration not stated): the LD50 is 590 mg/kg.
As for `CC(=O)N[C@@H](CC(C)C)C(=O)N[C@@H](CC(C)C)C(=O)N[C@H](C=O)CCCNC(=N)N`, the LD50 is 720 mg/kg.
